The record followed here is ChEMBL document CHEMBL1201862, “PubChem BioAssay data set” (2004).

The IC50 is the point on the concentration scale where inhibition reaches its midpoint. A word on the CC50: it is the concentration giving 50% cytotoxicity. Broadly, the EC50 is the concentration giving half of the maximal effect. In general, AC50 refers to the concentration at which the activity in the assay is half-maximal.

Calls of active or inactive are those of the source.

Experiment [1] addresses Glucose-6-phosphate 1-dehydrogenase (Homo sapiens, UniProt P11413). Briefly: human G6PD enzyme inhibitors, dose response, selectivity assay for P. falciparum G6PD inhibitor project, biochemical, fluorescence (AID 504792). It counts as functional.
Experiment [2] addresses Eukaryotic translation initiation factor 4E (Mus musculus, UniProt P63073). Nature of the experiment: eIF4E–eIF4G protein interaction inhibitors, dose response, biochemical, TR-FRET (AID 855).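 Further: potency for disrupting eIF4E binding to eIF4GI seen as loss of FRET.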 It counts as functional.
The nature of experiment [3]: HEp-2 cell cytotoxicity, dose response, cytotoxicity control for RSV inhibitor project, HTS (AID 2410). Format: functional. As to conditions: human respiratory syncytial virus.
The nature of experiment [4]: A Cell Based Secondary Assay To Explore Cytotoxicity of Compounds that Sensitize Mycobacterium Tuberculosis to Beta-Lactam Antibiotics. It counts as functional.
A short description of experiment [5]: cells.
The target of experiment [6] is Glyceraldehyde-3-phosphate dehydrogenase (Homo sapiens, UniProt P04406).
For experiment [7], the target named is T1, Alkaline phosphatase, tissue-nonspecific isozyme (Homo sapiens, UniProt P05186).
T1 sequence (P05186 whole entry): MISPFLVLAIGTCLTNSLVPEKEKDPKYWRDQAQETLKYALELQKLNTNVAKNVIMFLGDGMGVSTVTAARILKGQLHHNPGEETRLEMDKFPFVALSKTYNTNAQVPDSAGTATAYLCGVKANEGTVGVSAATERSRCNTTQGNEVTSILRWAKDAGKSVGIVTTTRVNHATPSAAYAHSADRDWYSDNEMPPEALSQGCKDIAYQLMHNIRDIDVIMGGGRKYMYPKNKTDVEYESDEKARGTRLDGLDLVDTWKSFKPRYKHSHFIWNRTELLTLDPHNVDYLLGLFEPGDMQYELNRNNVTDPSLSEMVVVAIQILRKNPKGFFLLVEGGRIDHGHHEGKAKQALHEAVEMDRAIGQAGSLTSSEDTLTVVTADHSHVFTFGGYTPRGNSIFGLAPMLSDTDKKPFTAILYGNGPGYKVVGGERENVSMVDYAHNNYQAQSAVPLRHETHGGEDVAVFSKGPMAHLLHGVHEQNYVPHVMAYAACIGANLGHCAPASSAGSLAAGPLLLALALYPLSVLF
Nature of the experiment: human TNAP enzyme inhibitors, SAR follow-up, biochemical, luminescent, dose response (AID 1056).

The nature of experiment [8]: inhibitors of intracellular T. cruzi replication, confirmation, NIH3T3 host cells, beta-gal luminescence (AID 2044).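 Further: intracellular parasites grown in NIH/3T3 mouse fibroblasts as host cells; luminescent beta-galactosidase reporter signal from transgenic T. cruzi replicating inside host cells; inhibitors lower the luminescence signal.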 It counts as functional, cell-based.
Experiment [9] is described as follows: cytotoxicity toward NIH3T3 fibroblasts, dose response, counter-screen, cell-based, ATP luminescence, mouse fibroblasts (AID 2010).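 Further: cells exposed to compound for about 90 hours before reading.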 Format: functional. (In general: Counterscreens check selectivity or assay interference.)
Experiment [10] deals with T2, Mannose-6-phosphate isomerase (Homo sapiens, UniProt P34949).
T2 sequence (P34949 whole entry): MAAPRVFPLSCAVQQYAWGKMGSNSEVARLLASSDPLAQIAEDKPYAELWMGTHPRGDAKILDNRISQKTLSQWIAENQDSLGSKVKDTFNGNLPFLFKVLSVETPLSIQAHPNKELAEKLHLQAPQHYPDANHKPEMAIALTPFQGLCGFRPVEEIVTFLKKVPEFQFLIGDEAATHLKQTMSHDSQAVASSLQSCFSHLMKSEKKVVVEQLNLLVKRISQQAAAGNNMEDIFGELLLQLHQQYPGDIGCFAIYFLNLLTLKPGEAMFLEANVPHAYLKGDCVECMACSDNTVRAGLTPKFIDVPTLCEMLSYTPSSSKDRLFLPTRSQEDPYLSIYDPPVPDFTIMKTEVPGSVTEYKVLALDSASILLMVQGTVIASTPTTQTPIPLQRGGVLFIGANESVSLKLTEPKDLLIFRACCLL
Nature of the experiment: human PMI inhibitors, high substrate, primary screen, biochemical, fluorescence intensity, high mannose 6-phosphate (AID 1220).

In a further experiment the target is Genome polyprotein (dengue virus type 2, UniProt P29990). Nature of the experiment: Dengue-2 NS5 methyltransferase inhibitors, primary screen, biochemical, confirmation dose response (AID 588689). It counts as functional.
In experiment [11] the target is DNA dC->dU-editing enzyme APOBEC-3A (Homo sapiens, UniProt P31941). Nature of the experiment: Dose Response confirmation of small molecule APOBEC3A DNA Deaminase Inhibitors via a fluorescence-based single-stranded DNA deaminase assay. [Related pubchem assays (depositor defined):AID493011, AID493024]. Format: functional.
For experiment [12], the target named is DNA dC->dU-editing enzyme APOBEC-3G (Homo sapiens, UniProt Q9HC16). Format: functional.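 Further: Dose-response counterscreen measuring inhibition of APOBEC3G DNA deaminase activity, run while confirming APOBEC3A inhibitors.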
In another experiment the test system is HEK293. Briefly: inhibitors of LMP1-driven NF-kB reporter, dose response, cell-based, HEK293, luciferase, cherry-pick (AID 588343). It counts as functional. The settings on record: Homo sapiens.
The target in experiment [13] is Nuclear receptor subfamily 5 group A member 2 (Homo sapiens, UniProt O00482). Format: functional, cell-based.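 Further: HEK293T cells transfected with LRH-1 and a StAR promoter luciferase reporter; potency for inhibitors that lower LRH-1 driven reporter light.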
The next experiment addresses Steroidogenic factor 1 (Homo sapiens, UniProt Q13285). Nature of the experiment: Counterscreen for inverse agonists of the liver receptor homolog-1 (LRH-1; NR5A2): Luminescence-based cell-based high throughput dose response assay to identify inverse agonists of the Steroidogenic Factor 1 Nuclear Receptor (SF1; NR5A1). Format: functional.
Experiment [14] in a line: StAR promoter reporter inhibition counter-screen, dose response, counter-screen for LRH-1 inverse agonist project, cell-based, luminescence, luciferase reporter (AID 651969). It counts as functional.
In experiment [15] the target is T3, Rac GTPase-activating protein 1 (Homo sapiens, UniProt Q9H0H5).
T3 sequence (Q9H0H5 whole entry): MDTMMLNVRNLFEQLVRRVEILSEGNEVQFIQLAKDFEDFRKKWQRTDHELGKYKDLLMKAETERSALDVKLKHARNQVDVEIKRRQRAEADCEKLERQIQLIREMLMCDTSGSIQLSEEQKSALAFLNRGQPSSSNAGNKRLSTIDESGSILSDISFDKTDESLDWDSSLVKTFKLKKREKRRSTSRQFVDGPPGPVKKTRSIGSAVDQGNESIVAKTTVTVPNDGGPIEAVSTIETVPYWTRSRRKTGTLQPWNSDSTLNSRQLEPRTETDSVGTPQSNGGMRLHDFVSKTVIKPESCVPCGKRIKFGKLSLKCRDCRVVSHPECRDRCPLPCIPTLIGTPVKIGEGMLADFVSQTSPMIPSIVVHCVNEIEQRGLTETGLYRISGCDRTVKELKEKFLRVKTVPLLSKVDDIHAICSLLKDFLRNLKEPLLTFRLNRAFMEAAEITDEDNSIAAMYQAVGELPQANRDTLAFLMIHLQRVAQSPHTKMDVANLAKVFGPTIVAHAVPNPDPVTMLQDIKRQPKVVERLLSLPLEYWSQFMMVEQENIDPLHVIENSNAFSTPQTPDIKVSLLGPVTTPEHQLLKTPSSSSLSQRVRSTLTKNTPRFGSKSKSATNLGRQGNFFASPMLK
Nature of the experiment: MgcRacGAP GTPase-activating activity inhibitors, confirmation, biochemical, ADP Hunter fluorescence, primary and confirmatory (AID 624330). Format: functional.

Experiment [16] concerns the target T4, DNA repair protein RAD52 homolog (Homo sapiens, UniProt P43351).
T4 sequence (P43351 whole entry): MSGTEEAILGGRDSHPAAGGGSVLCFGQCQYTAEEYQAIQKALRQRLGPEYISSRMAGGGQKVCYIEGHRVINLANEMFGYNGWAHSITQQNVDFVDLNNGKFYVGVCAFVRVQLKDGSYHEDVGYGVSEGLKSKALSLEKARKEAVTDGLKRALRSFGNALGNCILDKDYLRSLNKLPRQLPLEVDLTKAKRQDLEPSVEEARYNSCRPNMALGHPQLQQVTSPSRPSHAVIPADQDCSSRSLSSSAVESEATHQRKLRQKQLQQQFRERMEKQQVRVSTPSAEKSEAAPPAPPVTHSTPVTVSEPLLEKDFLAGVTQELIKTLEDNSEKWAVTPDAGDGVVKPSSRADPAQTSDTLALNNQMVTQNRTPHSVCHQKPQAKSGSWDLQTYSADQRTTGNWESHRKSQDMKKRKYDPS
It counts as functional, biochemical.

Experiment [17] is described as follows: NIH-3T3 fibroblast cytotoxicity, dose response, cytotoxicity control, cell-based, fluorescence, Alamar Blue, secondary assay (AID 2327).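 Further: NIH-3T3 mouse fibroblasts cultured with fluconazole at 8 µg/mL.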 It counts as functional.
A short description of experiment [18]: cells. It counts as functional, cell-based.
A short description of experiment [19]: C. albicans growth with fluconazole, confirmation, fluorescence, retest (AID 2467). Format: functional, cell-based.
Experiment [20] can be described thus: cells. Format: functional, cell-based. This is another data set of the same source.

Glucose-6-phosphate 1-dehydrogenase, sequence (P11413 whole entry): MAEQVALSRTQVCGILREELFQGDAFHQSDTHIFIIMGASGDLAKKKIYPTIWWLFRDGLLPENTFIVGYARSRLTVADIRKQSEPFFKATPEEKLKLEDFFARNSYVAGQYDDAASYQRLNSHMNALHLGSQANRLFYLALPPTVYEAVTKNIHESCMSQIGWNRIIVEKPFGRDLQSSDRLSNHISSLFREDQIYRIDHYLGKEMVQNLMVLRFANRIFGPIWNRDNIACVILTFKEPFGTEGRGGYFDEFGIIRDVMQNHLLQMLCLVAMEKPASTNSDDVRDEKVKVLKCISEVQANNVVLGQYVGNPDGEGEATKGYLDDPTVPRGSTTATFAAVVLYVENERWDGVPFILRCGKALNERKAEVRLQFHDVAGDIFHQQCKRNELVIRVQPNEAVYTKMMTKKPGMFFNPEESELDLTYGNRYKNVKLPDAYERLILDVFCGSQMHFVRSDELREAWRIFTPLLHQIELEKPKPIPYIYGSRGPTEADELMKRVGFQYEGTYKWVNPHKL
Glyceraldehyde-3-phosphate dehydrogenase, sequence (P04406 whole entry): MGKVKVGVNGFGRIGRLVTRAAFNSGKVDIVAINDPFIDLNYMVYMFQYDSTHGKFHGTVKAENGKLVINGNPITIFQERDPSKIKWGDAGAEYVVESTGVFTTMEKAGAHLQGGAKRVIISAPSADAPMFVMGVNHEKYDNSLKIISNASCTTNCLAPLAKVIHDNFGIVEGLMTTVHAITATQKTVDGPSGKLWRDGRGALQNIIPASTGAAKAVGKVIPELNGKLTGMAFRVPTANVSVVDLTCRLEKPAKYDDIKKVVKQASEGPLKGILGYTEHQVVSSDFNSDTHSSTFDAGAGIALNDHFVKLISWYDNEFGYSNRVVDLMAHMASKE
Eukaryotic translation initiation factor 4E, sequence (P63073 whole entry): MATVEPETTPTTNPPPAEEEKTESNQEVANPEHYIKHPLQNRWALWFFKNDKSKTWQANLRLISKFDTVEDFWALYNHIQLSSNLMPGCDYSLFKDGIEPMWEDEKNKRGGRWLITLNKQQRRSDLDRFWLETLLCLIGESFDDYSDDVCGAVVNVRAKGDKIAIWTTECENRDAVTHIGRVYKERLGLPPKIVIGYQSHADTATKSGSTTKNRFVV
DNA dC->dU-editing enzyme APOBEC-3A, sequence (P31941 whole entry): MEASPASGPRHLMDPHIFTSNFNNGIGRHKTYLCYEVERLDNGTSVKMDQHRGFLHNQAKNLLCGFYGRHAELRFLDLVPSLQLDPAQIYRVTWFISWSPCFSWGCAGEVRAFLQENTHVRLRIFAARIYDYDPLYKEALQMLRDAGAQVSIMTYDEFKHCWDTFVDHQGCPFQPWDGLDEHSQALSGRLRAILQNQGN
Nuclear receptor subfamily 5 group A member 2, sequence (O00482 whole entry): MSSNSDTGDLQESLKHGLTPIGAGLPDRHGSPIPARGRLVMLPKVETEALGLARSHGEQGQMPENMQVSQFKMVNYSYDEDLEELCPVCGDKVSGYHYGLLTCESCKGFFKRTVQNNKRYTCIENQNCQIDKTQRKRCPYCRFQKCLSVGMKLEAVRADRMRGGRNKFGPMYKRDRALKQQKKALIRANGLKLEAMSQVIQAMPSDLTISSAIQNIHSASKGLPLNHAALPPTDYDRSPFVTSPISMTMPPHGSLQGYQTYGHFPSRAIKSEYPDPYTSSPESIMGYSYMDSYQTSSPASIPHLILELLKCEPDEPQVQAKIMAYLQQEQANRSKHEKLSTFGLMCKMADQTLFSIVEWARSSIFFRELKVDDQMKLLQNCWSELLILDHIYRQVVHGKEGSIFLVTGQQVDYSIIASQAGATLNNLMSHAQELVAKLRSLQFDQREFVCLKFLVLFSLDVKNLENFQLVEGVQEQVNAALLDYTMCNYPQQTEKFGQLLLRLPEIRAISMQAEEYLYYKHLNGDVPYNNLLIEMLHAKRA
DNA dC->dU-editing enzyme APOBEC-3G, sequence (Q9HC16 whole entry): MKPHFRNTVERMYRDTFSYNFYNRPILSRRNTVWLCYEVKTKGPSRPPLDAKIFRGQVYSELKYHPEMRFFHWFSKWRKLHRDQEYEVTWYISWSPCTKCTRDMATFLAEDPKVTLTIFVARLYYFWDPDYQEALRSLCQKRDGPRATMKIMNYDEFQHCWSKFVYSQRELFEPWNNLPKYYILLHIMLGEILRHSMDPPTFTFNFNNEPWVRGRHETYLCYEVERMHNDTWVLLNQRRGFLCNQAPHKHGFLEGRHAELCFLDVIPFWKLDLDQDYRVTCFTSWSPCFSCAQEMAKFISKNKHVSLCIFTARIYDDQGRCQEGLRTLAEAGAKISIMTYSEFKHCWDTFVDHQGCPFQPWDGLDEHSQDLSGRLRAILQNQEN
Steroidogenic factor 1, sequence (Q13285 whole entry): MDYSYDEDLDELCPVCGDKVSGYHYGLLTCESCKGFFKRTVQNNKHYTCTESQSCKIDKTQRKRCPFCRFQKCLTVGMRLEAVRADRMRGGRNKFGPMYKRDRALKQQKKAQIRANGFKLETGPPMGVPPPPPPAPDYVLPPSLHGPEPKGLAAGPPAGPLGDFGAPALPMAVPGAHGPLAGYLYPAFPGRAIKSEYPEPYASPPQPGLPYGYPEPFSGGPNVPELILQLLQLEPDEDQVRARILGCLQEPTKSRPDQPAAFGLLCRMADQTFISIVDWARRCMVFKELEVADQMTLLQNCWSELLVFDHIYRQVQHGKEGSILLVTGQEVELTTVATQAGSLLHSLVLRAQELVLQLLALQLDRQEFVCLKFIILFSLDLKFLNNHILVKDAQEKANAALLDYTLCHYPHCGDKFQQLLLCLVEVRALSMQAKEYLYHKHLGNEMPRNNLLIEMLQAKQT
Genome polyprotein, sequence (P29990 2492-3391 limits assumed): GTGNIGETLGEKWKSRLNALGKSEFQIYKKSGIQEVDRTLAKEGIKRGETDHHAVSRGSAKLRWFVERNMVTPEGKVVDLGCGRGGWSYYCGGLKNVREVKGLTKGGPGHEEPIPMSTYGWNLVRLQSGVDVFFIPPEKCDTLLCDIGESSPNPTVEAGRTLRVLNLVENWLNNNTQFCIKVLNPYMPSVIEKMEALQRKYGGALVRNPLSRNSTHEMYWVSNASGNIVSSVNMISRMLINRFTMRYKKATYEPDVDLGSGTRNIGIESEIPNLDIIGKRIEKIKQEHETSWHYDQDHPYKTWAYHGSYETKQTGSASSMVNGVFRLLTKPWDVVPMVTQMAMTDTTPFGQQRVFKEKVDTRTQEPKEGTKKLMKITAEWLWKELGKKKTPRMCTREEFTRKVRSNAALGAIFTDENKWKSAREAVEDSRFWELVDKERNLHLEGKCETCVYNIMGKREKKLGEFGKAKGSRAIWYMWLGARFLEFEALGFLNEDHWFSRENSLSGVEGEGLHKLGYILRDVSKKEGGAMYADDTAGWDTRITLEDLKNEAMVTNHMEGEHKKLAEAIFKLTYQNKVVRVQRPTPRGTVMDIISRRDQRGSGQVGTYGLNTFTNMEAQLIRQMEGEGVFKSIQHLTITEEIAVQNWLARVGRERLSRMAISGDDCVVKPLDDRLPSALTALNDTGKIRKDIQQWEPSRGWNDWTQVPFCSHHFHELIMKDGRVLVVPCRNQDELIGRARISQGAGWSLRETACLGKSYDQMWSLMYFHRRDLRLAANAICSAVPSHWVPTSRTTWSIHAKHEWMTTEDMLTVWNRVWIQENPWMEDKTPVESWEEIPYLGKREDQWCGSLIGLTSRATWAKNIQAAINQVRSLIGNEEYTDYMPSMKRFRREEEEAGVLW

`CCc1c(C#N)c(S)nc(C)c1C(=O)Nc1ccccc1`: the IC50 in experiment [1] was > 80 µM (inactive).

For `CC(C)c1ccc(CN2CCC(C(=O)NCc3cccnc3)CC2)cc1`, the IC50 in [2] was > 64 µM (inactive).

With `Cc1cccc(C)c1-n1c(C)cc(/C=C2\C(=O)NN(c3ccccc3)C2=O)c1C`, the CC50 in [3] is 36.6 µM (active); in experiment [4], > 40 µM (active). Besides, the IC50 in the experiment “cells [5]” is 7.55 µM (active).

Turning to `O=C1C2CC=C(Cl)CC2C(=O)N1c1nnc[nH]1` (stereo not given), the IC50 in [6] is > 100 µM (not active); in [7], > 100 µM (inactive).

For `O=C1c2ccccc2C(=O)C1c1nc2ccccc2[nH]1`, the IC50 was > 100 µM (not active) in experiment [6] and > 100 µM (inactive) in experiment [7].

With `COc1c(S(=O)(=O)Nc2cccnc2)ccc(Cl)c1Cl`, the IC50 in [7] was > 100 µM (inactive).

`CC(C)(C)c1ccc(S(=O)(=O)Nc2cnc3ccccc3c2)cc1`: the IC50 in experiment [6] was > 100 µM (not active); in experiment [7], > 100 µM (inactive).

Consider `COc1ccc(NS(=O)(=O)c2ccc(OC)c(OC)c2)cn1`, for which the results for the IC50 in experiment [6] and in [7] were > 100 µM (not active) and > 100 µM (inactive), respectively.

As for `O=C(NN1CCOCC1)c1cc(-c2ccc(Br)cc2)nc2ccccc12`, the IC50 in experiment [2] was > 64 µM (inactive).

Regarding `Cc1ccc(C(=O)CSc2ncnc3sc4c(c23)CCCC4)cc1`, the IC50 in [2] was > 64 µM (inactive).

Regarding `O=C(CSc1nc2cc(Cl)ccc2[nH]1)NC1CCCc2ccccc21` (stereo not given), in experiment [1], the IC50 was > 80 µM (inactive).

With `Fc1cccc(Cl)c1CNc1ccc(N2CCCC2)cc1`, the EC50 in experiment [8] is 2.52 µM (active); in [9] it was > 60 µM (not active). Besides, the IC50 was 30.5 µM (active) in [10], > 80 µM (inactive) in experiment [1], 50 µM (inactive) in experiment [2] and 35.6 µM (active) at Genome polyprotein.

As for `Cn1ccnc1Sc1nc(Nc2ccccc2)nc(Nc2ccccc2)n1`, the IC50 in [6] was > 100 µM (not active); in experiment [7], > 100 µM (inactive).

As for `COc1ccc(C(=O)OCC[N+]2(C)CCOCC2)cc1`, the IC50 in [11] is 1.97 µM (active); in experiment [2], 50 µM (inactive); in experiment [12], 3.47 µM (active).

For the compound `CCCS(=O)(=O)N1CCN(S(=O)(=O)c2ccccc2)CC1`, the IC50 in experiment [2] is > 64 µM (inactive).

As for `Cc1ccccc1C(=O)N1CCN(c2ccc(NC(=O)c3ccco3)cc2Cl)CC1`, the AC50 with HEK293 was 2.45 µM (active).

As for `CC(C)c1ccc(-c2cc(C(=O)O)[nH]n2)cc1`, the half-inhibitory concentration (IC50) in experiment [6] is > 100 µM (not active); in experiment [7], > 100 µM (inactive).

For the compound `NS(=O)(=O)c1ccc(O)c(NC(=O)c2ccc([N+](=O)[O-])o2)c1`, the CC50 in experiment [4] was > 40 µM (active). For the same compound, the figures for the half-inhibitory concentration (IC50) (in [13]; on Steroidogenic factor 1; in [14]) were 4.16 µM (active), 1.52 µM (active) and 35.9 µM (inactive), respectively.

For `c1nc2nc[nH]c(SSc3[nH]cnc4ncnc3-4)c-2n1`, the IC50 is 30.8 µM (inactive) in experiment [1] and 75.2 µM (active) in experiment [15].

Turning to `O=C1Nc2cc(C(=O)NCCCN3CCCC3)ccc2S/C1=C/c1cccc(Cl)c1`, the IC50 in experiment [1] is > 80 µM (inactive). Further, the AC50 in experiment [16] is 7.29 µM (active).

Consider `CCN(CC)S(=O)(=O)c1ccc(N/N=C(\C)c2ccc(OC)cc2O)nc1`, for which the EC50 is 5.47 µM (active) in [17], 29.1 µM (active) in the experiment “cells [18]”, > 38 µM (not active) in [19] and > 350 µM (not active) in the experiment “cells [20]”. The half-maximal cytotoxic concentration (CC50) in [4] was 3.86 µM (active).

On to `COC(=O)c1ccccc1/N=C/C1=C(O)c2c(C)nn(-c3ccccn3)c2CC1`, for which the IC50 in experiment [1] is > 80 µM (inactive).

Take `Cc1nnc(N/N=C\c2ccc(-c3cccc(C(=O)O)c3)o2)n1N`: the IC50 in [1] is 66.8 µM (inactive).

Regarding `S=C(N/N=C/c1ccc2ncccc2c1)Nc1cccnc1`, the AC50 with HEK293 was 1.59 µM (active).

With `COc1ccc(OC)c(NS(=O)(=O)c2cnc3ccccc3c2)c1`, the IC50 in [6] is > 10 µM (inconclusive); in experiment [7], > 10 µM (inactive).
